According to BindingDB's records for doi:10.1021/jm00053a012 (Washington University, 1993):

Target: calcium-independent phospholipase A2 (Canis familiaris)
Assay: Compounds were evaluated for the inhibitory activity against canine myocardial cytosolic calcium-independent phospholipase A2.

An IC50 of 30 nM was found for O=C1O/C(=C/I)CCC1c1cccc2ccccc12 (configuration not stated) [(E)-6-Iodomethylene-3-naphthalen-1-yl-tetrahydro-pyran-2-one] in this work.

An IC50 of 190 nM was found for O=C1O/C(=C\I)CCC1c1cccc2ccccc12 (configuration not stated) [(Z)-6-(iodomethylene)-3-(naphthalen-1-yl)tetrahydro-2H-pyran-2-one] in this work.
